Bridge positions count the residues as written; N and C are the ends. Peptide text beside a SMILES is read from it.
Test: In vivo pharmacokinetics after intravenous administration to rats
Parameters: species or system male Sprague-Dawley rats
Settings: rat, 5 mg/kg intravenous bolus, male Sprague-Dawley rats
Experimental: The clearance and elimination of peptides can be mediated by multiple processes in vivo, including metabolism and renal elimination.
Test compounds were intravenously (i.v.) administered to male Spraque-Dawley rats (about is six weeks old, n=3 per compound) at 5 mg/kg. Blood samples were collected from jugular vein through implanted in-dwelling catheters (250 pl blood) into labelled polypropylene tubes containing anticoagulant (heparin) at 2 min, 5 min,15 min, 30 min, 1 h, 2 h and 4 h after compound administration and held on wet ice for a maximum of 30 minutes. The blood samples were centrifuged for plasma separation (4 °C, 21100 G, 5 min). Tolbutamide 500ng/ml with 10% TFA in acetonitrile or in MeCN was used as an internal standard solution.
The standard samples were prepared into rat plasma by spiking the matrix into concentrations 2-10 000 ng/ml of the analyte, respectively, and otherwise treated as the samples. To 50 pl aliquots of sample plasma was added 200 pl of internal standard. Samples were mixed (150 rpm, 15 min) and centrifugated (3000 rpm, 15min). The analytical method was optimized for reaction monitoring chromatographic (peak shape & retention) shifts and mass spectrometric properties (ionization efficiency, MS/MS detection). Supernatants were analyzed by UHPLC-TOF mass spectrometry using electrospray ionization.

CC[C@H](C)[C@@H]1NC(=O)[C@H](CO)NC(=O)[C@H](CCCCN)NC(=O)[C@H](CCC(=O)O)NC(=O)[C@H](C)NC(=O)[C@@H]2CSSC[C@H](NC(=O)[C@H]([C@@H](C)O)NC(=O)[C@H](CCC(=O)O)NC(=O)CNC(=O)[C@H](Cc3c[nH]c4ccccc34)NC(=O)[C@H](CC(=O)O)NC(=O)[C@H](CC(=O)O)NC(=O)[C@H](CC(C)C)NC1=O)C(=O)N[C@@H](CCCCN)C(=O)NCC(=O)N2 [Compound 10, KSILDDWGETCKGCAE] (cyclo(AEKSILDDWGETCKGC); disulfide 13-16)
AUC(0-inf) (in vivo): 2140 ng·h/mL | MRT (in vivo): 1.2 min | Vd (in vivo): 0.05 L/kg | half-life (in vivo): 3.6 min | clearance (plasma, read-out: CI): 39.9 mL/min/kg

From patent publication US20230391841A1, “MACROCYCLIC PEPTIDES” (Herantis Pharma OYJ, priority 2019, published 2023)
